Results as given in PubChem BioAssay (NCI).
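Dose response: 5 concentrations. Exposure: 48 h. Format: 96-well plates. Endpoint: linear interpolation; highest concentration if not reached. GI50 is the concentration that inhibits growth by half. TGI denotes the concentration required for complete inhibition of growth.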

Experiments:
Assay in all cases: DTP human tumour cell line panel, 48 h
SK-OV-3 ovarian = tested on: SK-OV-3 ovarian
HCC-2998 colon = tested on: HCC-2998 colon
SK-MEL-28 melanoma = tested on: SK-MEL-28 melanoma
UACC-257 melanoma = tested on: UACC-257 melanoma
CCRF-CEM leukemia = tested on: CCRF-CEM leukemia
EKVX NSCLC = tested on: EKVX NSCLC
SNB-19 CNS = tested on: SNB-19 CNS
KM12 colon = tested on: KM12 colon
SR leukemia = tested on: SR leukemia
DU-145 prostate = tested on: DU-145 prostate

SMILES	TGI (SK-OV-3 ovarian) [µM]	TGI (HCC-2998 colon) [µM]	TGI (SK-MEL-28 melanoma) [µM]	TGI (UACC-257 melanoma) [µM]	TGI (CCRF-CEM leukemia) [µM]	TGI (EKVX NSCLC) [µM]	TGI (SNB-19 CNS) [µM]	TGI (KM12 colon) [µM]	TGI (SR leukemia) [µM]	GI50 (SK-OV-3 ovarian) [µM]	GI50 (HCC-2998 colon) [µM]	GI50 (SK-MEL-28 melanoma) [µM]	GI50 (UACC-257 melanoma) [µM]	GI50 (CCRF-CEM leukemia) [µM]	GI50 (EKVX NSCLC) [µM]	GI50 (DU-145 prostate) [µM]	TGI (DU-145 prostate) [µM]	GI50 (SNB-19 CNS) [µM]	GI50 (KM12 colon) [µM]	GI50 (SR leukemia) [µM]
CCCCCCCCCCCCCP(=O)(OC)OC	33.3	36	39.1	33.7	38.8	39.5	38.6	31.9	38.4											
CC(O)(c1ccc(OCCC[N+](C)(C)C)cc1)C(C)(O)c1ccc(OCCC[N+](C)(C)C)cc1 (configuration not stated)	> 100	> 100	> 100	> 100	> 100	> 100	> 100	> 100												
COc1ccc2[nH]cc(C3(c4c[nH]c5ccc(OC)cc45)C(=O)Nc4ccc(Cl)cc43)c2c1	23.4	11.4	13.1	> 100	> 100	11.9	> 100	6.33		5.42	3.26	3.1	2.84	3.67	2.16	4.73	29.2	5.14	2.52	
O=C(CC1(O)C(=O)Nc2c(Cl)cc(Cl)cc21)c1ccc([N+](=O)[O-])cc1 (configuration not stated)	> 100	> 100	> 59.6	> 54.3	> 84.3	> 61.9	> 100	> 100	> 80.6											
COc1ccc(Cl)cc1Nc1nc(C(F)(F)F)ccc1C(=O)N/N=C/c1ccccc1Cl	12.5	19.2	> 100	4.62	2.79	7.22	> 55.7	> 28		1.58	1.97	4.5	1.82	0.446	2.04	3.94	> 25.6	2.34	2.81	
Cc1cc(=O)n2c(cc3cccccc32)n1		> 100	> 100	> 100	> 100	> 100	> 100	> 100	> 100											
CSC(=NC(=O)c1ccccc1)SCCSC(=NC(=O)c1ccccc1)SC		> 100	> 100	> 100	> 100	> 100	> 100	> 100												
Cc1nccc2c3ccc(OCc4cn(-c5ccc(Br)cc5)nn4)cc3n(CCCc3ccccc3)c12	> 100	> 100	3.45	4.4	> 100	> 100	> 100	> 100		31.2	> 100	1.72	2.06	2.97	> 100	5.2	> 100	3.35	2.73	
CC(Oc1ccc2c(=O)cc(-c3ccccc3)oc2c1)C(=O)O (configuration not stated)	> 100	> 100	> 100	> 100	> 100	> 100	> 100	> 100	> 100											
c1ccc(N2CCN(CCCN3CCc4c([nH]c5ccccc45)C3c3cccnc3)CC2)cc1 (configuration not stated)	> 100	> 100	> 100	> 79.9	> 100	> 100	> 100	> 100	> 71.1											
Cc1ccc(-c2nc3ccccc3c(=O)n2NC2OC(CO)C(O)C(O)C2O)cc1 (configuration not stated)	> 100	> 100	> 100	> 100	> 100	> 100	> 100	> 100												
CC1(C)C=C(N2CCN(C3=CC(C)(C)NC(C)(C)C3)CC2)CC(C)(C)N1	> 100	> 100	> 100	> 100	> 100	> 100	> 100	> 100	> 100											
CN(CCc1ccccn1)/[N+]([O-])=N/O (tested in a mixture with another compound)		> 100	> 100	> 100	> 100	> 100	> 100	> 100	> 100											
O=C1C(c2ccccc2)=[N+]([O-])c2cc([N+](=O)[O-])ccc21	> 100	77.4	48.4	40.5	40.5	34.5	> 100	47.5												
COc1ccc2[nH]cc(Cc3c[nH]c4ccc(OC)cc34)c2c1			53	88.1		45.9	79.8	41.4	> 100			21.8	32.4		17.9	15.2	34	29.3	19	77.8
CCOP(=O)(OCC)C(NC(c1ccccc1)c1ccccc1)c1ccsc1 (configuration not stated)						41.6		37.5	98.2						21.7	19.1	35.5		16.7	23
CC(=O)CCn1[nH]c(=O)c(Cl)c(Cl)c1=O		> 100	> 100	> 100	> 100	> 100	31.1	> 100	> 100											
COC(=O)/C(=N\Nc1nc(=S)[nH]n1N)C(C#N)c1ccc(Cl)cc1 (configuration not stated)	> 100	> 100	> 100	> 100		> 100	> 100	> 100												
C=C1CCCC2OC(OC)CCC12 (configuration not stated)	> 100	> 100		> 100	> 100	> 100	> 100	> 100	> 100											
CC1=C(C(=O)Nc2ccccc2C)C(c2ccccc2O)C(C(=O)Nc2ccccc2C)=C(C)N1		29.6	59.1	49.4	> 100	> 100	> 100	31.2	50.8											
CCCc1nn(C)c(CCC(=O)N(Cc2ccccc2)Cc2ccccc2)c1CC	> 100	> 100	> 100	> 100	> 100	> 100	> 100	> 100												
